pIC50: −log10 of the molar value. “Also recorded” adds a separate entry of the source. Like-named read-outs stand apart in the source and are kept apart here. Peptide text beside a SMILES is read from it.
Key:
[1] = target: T1, HLA-A*0201 (Homo sapiens, UniProt P04439, D140Y/D185E/D98H/E176V/E277Q/G131W/G231S/I119V/I121R/I166T/I218V/L300P/L318F/N151K/N90K/P208A/P217A/Q86G/Q94H/R138H/R169H/T345S)
[2] = target: T1, HLA-A*0201; assay: cell-based; format: binding
[3] = tested on: 20S proteasomes; assay: 1 μg of purified proteasome; details: human, 37°C, up to 24 h

Molecule | not cleaved [3] | cleaved bond [3] | also measured
CC[C@H](C)[C@H](NC(=O)[C@H](CCCCN)NC(=O)[C@H](CC(C)C)NC(=O)[C@H](CCCCN)NC(=O)[C@H](CCCCN)NC(=O)[C@H](CS)NC(=O)[C@H](CS)NC(=O)[C@H](CC(C)C)NC(=O)[C@@H](N)CCCNC(=N)N)C(=O)O (H-RLCCKKLKI-OH) |  |  | pIC50 [2]: 4.68
DEALAIAALELLPRELFPPLFMAAFDG |  | Leu45-E46, major, 1 h; also recorded: Met58-Ala59, minor, 1 h; also recorded: Ala59-A60, minor, 1 h | 
FLPSDYFPSV [HBV control, reference compound] |  |  | Stability DT50 [1]: >4 h
LAYLHARLRELLCELGRPSMVWLSANP |  | L470-L471, minor, 1 h | 
PLETLSITNCRLSEGDVMHLSQSPSVS |  | L342-S343, minor, 1 h | 
PTLAKFSPYLGQMINLRRLLLSHIHAS |  | L267-S268, minor, 1 h | 
QHLHLETFKAVLDGLDVLLAQEVRPRR | only Leu-108 was generated | Phe97-Lys98, major, 1 h; also recorded: Leu108-A109, major, 1 h | 
WTVWSGNRASLYSFPEPEAAQPMTKKR |  | Ala141-S142, major, 1 h; also recorded: Ala151-A152, major, 1 h | 

More lines, main results first:

not cleaved [3] | Molecule | cleaved bond [3] | also measured
not COOH-terminally excised | GNSISISALQSLLQHLIGLSNLTHVLY | L423-Q424, major, 1 h; also recorded: L433-S434, major, 1 h | 
not COOH-terminally excised | IPVEVLVDLFLKEGACDELFSYLIEKV |  | 
not COOH-terminally excised | QSLLQHLIGLSNLTHVLYPVPLESYED |  | 
not COOH-terminally generated | SQFLSLQCLQALYVDSLFFLRGRLDQL | Val303-Asp304, minor, 1 h; also recorded: Asp304-S305, minor, 1 h; also recorded: Leu306-F307, major, 1 h; also recorded: Leu309-R310, major, 1 h | 
not COOH-terminally excised | VMLTDVSPEPLQALLERASATLQDLVF |  | 

— publication PMC2195886 (The Journal of Experimental Medicine, 2001)
